From patent US9102617B2, “Antimicrobial agents” (Rutgers, The State University of New Jersey, priority 2010, dated 2015) come the findings set out here.

In assay [1] the test system is methicillin-sensitive Staphylococcus aureus (MSSA). As to the kind of experiment: Planktonic antibacterial broth microdilution assay (Test C), MIC vs MSSA. Particulars: 37° C., growth read after 24 to 48 hours at OD 600 nm. It counts as cell-based. How it is done:
(§1) Test C. Planktonic (Free-Living) Antibacterial Assay.
(§2) Planktonic antibacterial activity can be determined using a broth microdilution assay in which log-phase bacteria are grown at 37° C. in appropriate medium containing two-fold serial dilutions of a compound to yield a final concentration ranging from 256 to 0.1 μg/ml. For determination of minimal inhibitory concentration (MIC) values, bacterial growth is monitored after 24 to 48 hours by measuring optical density at 600 nm. […] The minimal inhibitory concentration against methicillin-sensitive Staphylococcus aureus (MSSA) for each of the following representative compounds of the invention was determined to be less than 32 μg/ml.

Assay [2] concerns methicillin-resistant Staphylococcus aureus (MRSA). As to the kind of experiment: Planktonic antibacterial broth microdilution assay (Test C), MIC vs MRSA. It counts as cell-based. Particulars: broth microdilution, 37° C., growth read after 24 to 48 hours at OD 600 nm, read-out: MIC vs MRSA. Here is the method: as §1, §2
Representative compounds of the invention were also tested against methicillin-resistant Staphylococcus aureus, vancomycin-resistant Enterococcus faecalis and Enterococcus faecium (VRE), vancomycin-sensitive Enterococcus faecalis and Enterococcus faecium (VSE).

Values after ≈ are worked out from the molar mass of the structure shown.

`COc1cc(C(F)(F)F)ccc1-c1cccc2c(CCN)cccc12` [Example 44, 2-(5-(2-Methoxy-4-(trifluoromethyl)phenyl)naphthalen-1-yl)ethanamine] yielded a minimum inhibitory concentration (MIC) in assay [1] not above 8 µg/mL.

`CN(C)Cc1cc(C(=O)O)ccc1-c1ccc2c(-c3ccc(C(C)(C)C)cc3)cccc2c1.Cl` [Example 85] came in with an MIC in assay [1] not above 8 µg/mL. As to `NCc1cccc(-c2ccc3c(-c4cccc(-c5ccccc5)c4)cccc3c2)c1` [Example 70], the MIC in assay [1] and in assay [2] was not above 8 µg/mL each time.

For the compound `COc1cc(-c2cc3ccccc3[n+](C)c2)cc(-c2ccc(F)cc2)c1OC.[I-]` [Example 4], the MIC in assay [1] amounted to 16 µg/mL.

The compound `CN(C)Cc1cccc(-c2ccc3c(-c4cccc(-c5ccccc5)c4)cccc3c2)c1` [Example 71] yielded an MIC in assay [1] not above 8 µg/mL. The same measure, in the same setting: with `C[N+](C)(C)c1cccc(-c2ccc3c(-c4cccc(-c5ccc(C(F)(F)F)cc5)c4)cccc3c2)c1.[I-]` [Example 80] the figure was not above 8 µg/mL. Same read-out and setting: for `NC(N)=NCc1cccc2c(-c3ccc(C4CC4)cc3)cccc12` [Example 46] the value was not above 8 µg/mL; for `COc1cc(CC(=N)N)c(-c2ccc3c(-c4ccc(C(C)(C)C)cc4)cccc3c2)cc1OC` [Example 103], not above 8 µg/mL. Turning to `CC(C)(C)c1ccc(-c2cccc3cc(-c4ccc(C(=O)O)cc4CN)ccc23)cc1.Cl` [Example 88], in assay [1], the minimum inhibitory concentration (MIC) was more than 64 µg/mL.

In assay [1], `C[N+](C)(C)Cc1cccc(-c2ccc3c(-c4cccc(-c5ccccc5)c4)cccc3c2)c1.[I-]` [Example 72] yielded a minimal inhibitory concentration (MIC) not above 8 µg/mL. For `COc1cc(C(F)(F)F)ccc1-c1cccc2c(CCN=C(N)N)cccc12` [Example 45], the MIC in assay [1] was not above 8 µg/mL. In turn, `CCC[n+]1cc(-c2cc(OC)c(OC)c(-c3ccc(C4CCCCC4)cc3)c2)cc2cc(OC)c(OC)cc21.[I-]` [Example 22] yielded a minimum inhibitory concentration (MIC) in assay [1] not above 8 µg/mL.

`COc1cc(C(F)(F)F)ccc1-c1cccc2c(CN=C(N)N)cccc12` [Example 43] had a minimum inhibitory concentration (MIC) in assay [1] not above 8 µg/mL.

Take `CC(C)(C)c1ccc(-c2ccc(CCN=C(N)N)c3ccccc23)cc1` [Example 39]: the MIC in assay [1] is not above 8 µg/mL. On to `COC(=O)c1ccc(-c2ccc3c(-c4ccc(C(C)(C)C)cc4)cccc3c2)c(CNC(=N)N)c1` [Example 101], for which the minimum inhibitory concentration (MIC) in assay [1] is not above 8 µg/mL. Still for that read-out and setting: for `CC(C)(C)c1ccc(-c2cccc(-c3cccc4cc(-c5cccc([N+](C)(C)C)c5)ccc34)c2)cc1.[I-]` [Example 78] the value was not above 8 µg/mL; for `COC(=O)c1ccc(-c2ccc3c(-c4ccc(C(C)(C)C)cc4)cccc3c2)c(C[N+](C)(C)C)c1.[I-]` [Example 84], not above 8 µg/mL. The same measure, in the same setting: with `COc1cc(-c2cc3ccccc3[n+](C)c2)cc(-c2cc(-c3ccc(F)cc3)cc(-c3ccc(F)cc3)c2)c1OC.[I-]` [Example 8] the figure was not above 8 µg/mL; with `CC(C)(C)c1ccc(-c2ccc(CCN)c3ccccc23)cc1` [Example 38, 2-(4-(4-(t-butyl)phenyl)naphthalen-1-yl)ethanamine], not above 8 µg/mL. On the same count and under the same terms, for `COc1cc(-c2cc3ccccc3[n+](C)c2)cc(-c2cccc(-c3ccc(F)cc3)c2)c1OC.[I-]` [Example 6] the value was not above 8 µg/mL; for `COc1c(CCN)ccc(-c2ccc3c(-c4ccc(C(C)(C)C)cc4)cccc3c2)c1OC.Cl` [Example 106], not above 8 µg/mL. Consider `COc1cc(-c2cc3ccc(OC)c(OC)c3[n+](C)c2)cc(-c2cccc(C(C)(C)C)c2)c1OC.[I-]` [Example 28], for which, in assay [1], the minimal inhibitory concentration (MIC) was not above 8 µg/mL.

In assay [1], `COc1ccc(-c2ccc3c(-c4ccc(C(C)(C)C)cc4)cccc3c2CNC(=N)N)c(OC)c1OC` [Example 58] registered an MIC not above 8 µg/mL. Still for that read-out and setting: for `CN(C)Cc1ccccc1-c1ccc2c(-c3ccc(C(C)(C)C)cc3)cccc2c1` [Example 60, (2-(1-(4-t-butylphenyl)naphthalen-6-yl)phenyl)-N,N-dimethylmethanamine] the value was 32 µg/mL (≈ 81.3 µM).

In assay [1], `C[n+]1c(-c2ccccc2)ccc2ccccc21.[I-]` [Comparative Example B, reference compound] had a minimal inhibitory concentration (MIC) of more than 64 µg/mL. Same read-out and setting: for `C[n+]1cc(-c2cc(F)c(F)c(-c3ccc(-c4ccccc4)cc3)c2)cc2ccccc21.[I-]` [Example 33] the value was not above 8 µg/mL; for `COc1cc2c(-c3ccc(-c4ccccc4)cc3)ccc([N+](C)(C)C)c2cc1OC.[I-]` [Example 50], not above 8 µg/mL. `CCC[n+]1cc(-c2cc(OC)c(OC)c(-c3ccc(-c4ccccc4)cc3)c2)cc2cc(OC)c(OC)cc21.[I-]` [Example 14]: the minimum inhibitory concentration (MIC) in assay [1] is not above 8 µg/mL. For the compound `C[n+]1cc(-c2ccc(-c3ccccc3)cc2)c2ccccc2c1.[I-]` [Example 107], the MIC in assay [1] was not above 8 µg/mL. On the same count and under the same terms, for `C[N+](C)(C)c1ccc(-c2ccc3c(-c4cccc(-c5ccccc5)c4)cccc3c2)cc1.[I-]` [Example 69] the value was not above 8 µg/mL; for `C[N+](C)(C)c1ccc(-c2ccc3c(-c4ccc(-c5ccccc5)cc4)cccc3c2)cc1.[I-]` [Example 95], not above 8 µg/mL. Still for that read-out and setting: for `C[N+](C)(C)c1cccc(-c2ccc3c(-c4ccc(F)cc4)cccc3c2)c1.[I-]` [Example 74] the value was not above 8 µg/mL; for `CC(C)(C)c1ccc(-c2cccc3cc(-c4ccc([N+](C)(C)C)cc4)ccc23)cc1.[I-]` [Example 100], not above 8 µg/mL.

For `N=C(N)NCc1cccc2c(-c3ccc(C(F)(F)F)cc3)cccc12` [Example 53], in assay [1], the minimum inhibitory concentration (MIC) was not above 8 µg/mL. Compound `COc1cc2cc(-c3cc(OC)c(OC)c(-c4ccc(C5CCCCC5)cc4)c3)c[n+](C)c2cc1OC.[I-]` [Example 21] displayed an MIC in assay [1] not above 8 µg/mL. On the same count and under the same terms, with `CC(C)(C)c1ccc(-c2cccc3cc(-c4cccc([N+](C)(C)C)c4)ccc23)cc1.[I-]` [Example 65] the figure was not above 8 µg/mL; with `COc1ccc(CNC(=N)N)c(-c2ccc3c(-c4ccc(C(C)(C)C)cc4)cccc3c2)c1OC` [Example 102], not above 8 µg/mL; with `COc1cc(-c2cc3cc4c(cc3[n+](C(C)C)c2)OCO4)cc(-c2ccc(-c3ccccc3)cc2)c1OC.[I-]` [Example 25], not above 8 µg/mL.

Regarding `C[n+]1cccc2c(-c3ccc(-c4ccccc4)cc3)cccc21.[I-]` [Example 122], the MIC in assay [1] is not above 8 µg/mL. `C[N+](C)(C)c1ccc(-c2ccc3c(-c4ccc(F)cc4)cccc3c2)cc1.[I-]` [Example 76] displayed an MIC in assay [1] not above 8 µg/mL.

In the case of `COc1cc(-c2cc3ccccc3nc2CN)cc(-c2ccc(C(C)(C)C)cc2)c1OC` [Example 31], in assay [1], the MIC was not above 8 µg/mL.

On to `N=C(N)NCc1cccc2c(-c3ccc(Br)cc3)cccc12` [Example 51, 1-((5-(4-bromophenyl)naphthalen-1-yl)methyl)guanidine], for which, in assay [1], the MIC was not above 8 µg/mL. The same measure, in the same setting: with `CC(C)(C)c1ccc(-c2ccc(CN=C(N)N)c3ccccc23)cc1` [Example 40] the figure was not above 8 µg/mL; with `C[N+](C)(C)c1cccc(-c2ccc3c(-c4cc(-c5ccc(F)cc5)cc(-c5ccc(F)cc5)c4)cccc3c2)c1.[I-]` [Example 82], not above 8 µg/mL. Same read-out and setting: with `COC(=O)c1ccc(-c2ccc3c(-c4ccc(C(C)(C)C)cc4)cccc3c2)c(CN)c1` [Example 89, methyl 4-(1-(4-t-butylphenyl)naphthalen-6-yl)-3-(aminomethyl)benzoate] the figure was not above 8 µg/mL; with `C[n+]1cccc2ccccc21.[I-]` [Comparative Example A, reference compound], more than 64 µg/mL; with `C[N+](C)(C)c1cccc(-c2ccc3c(-c4ccc(-c5ccccc5)cc4)cccc3c2)c1.[I-]` [Example 93], not above 8 µg/mL.

Compound `Cc1cc(C(F)(F)F)ccc1-c1cccc2c(CN=C(N)N)cccc12` [Example 47] registered an MIC in assay [1] not above 8 µg/mL.

The compound `N=C(N)NCc1ccccc1-c1ccc2c(-c3cccc(-c4ccccc4)c3)cccc2c1` [Example 105] displayed an MIC in assay [1] not above 8 µg/mL. Same read-out and setting: for `N=C(N)NCc1cccc2c(-c3ccc(Cl)cc3)cccc12` [Example 52] the value was not above 8 µg/mL. Still for that read-out and setting: with `CNCc1cc(C(=O)O)ccc1-c1ccc2c(-c3ccc(C(C)(C)C)cc3)cccc2c1.Cl` [Example 87] the figure was not above 8 µg/mL. Still for that read-out and setting: for `COc1cc(-c2cc3ccccc3[n+](C)c2)cc(-c2ccc(-c3ccccc3)cc2)c1OC.[I-]` [Example 2] the value was not above 8 µg/mL; for `COc1cc(-c2cc3cc4c(cc3[n+](C)c2)OCO4)cc(-c2ccc(C(C)(C)C)cc2)c1OC.[I-]` [Example 26a], not above 8 µg/mL; for `C[N+](C)(C)c1cccc(-c2ccc3c(-c4ccc(C(F)(F)F)cc4)cccc3c2)c1.[I-]` [Example 97], not above 8 µg/mL. For the compound `N=C(N)NCCc1cccc2c(-c3ccc(C(F)(F)F)cc3)cccc12` [Example 55], the minimal inhibitory concentration (MIC) in assay [1] is not above 8 µg/mL.

As to `COc1cc(-c2cc3ccc(OC)c(OC)c3[n+](C)c2)cc(-c2ccc(C(C)(C)C)cc2)c1OC.[I-]` [Example 30], in assay [1], the MIC was not above 8 µg/mL.

In assay [1], `C[N+](C)(C)c1cccc(-c2ccc3c(-c4cccc(-c5ccccc5)c4)cccc3c2)c1.[I-]` [Example 67] registered a minimal inhibitory concentration (MIC) not above 8 µg/mL. On the same count and under the same terms, with `COc1cc2cc(-c3cc(OC)c(OC)c(-c4ccc(C(C)(C)C)cc4)c3)c[n+](C)c2cc1OC.[I-]` [Example 16] the figure was not above 8 µg/mL; with `C[n+]1cccc2cccc(-c3ccc(-c4ccccc4)cc3)c21.[I-]` [Example 118], 16 µg/mL. The same measure, in the same setting: with `COc1cc2cc(-c3cc(OC)c(OC)c(-c4ccc(-c5ccccc5)cc4)c3)c[n+](C)c2cc1OC.[I-]` [Example 13] the figure was not above 8 µg/mL; with `CNCc1cc(C(=O)OC)ccc1-c1ccc2c(-c3ccc(C(C)(C)C)cc3)cccc2c1` [Example 86, methyl 4-(1-(4-t-butylphenyl)naphthalen-6-yl)-3-((methylamino)methyl)benzoate], not above 8 µg/mL.
